The target of one assay is NSD2 [1-1365] (Homo sapiens (Human), UniProt O96028). In words: LC-MS/MS-based NSD2 enzymatic assay (SAH production). The format is biochemical. Particulars: read-out: NSD2 IC50. The method, then:
LC-MS/MS-Based NSD2 Enzymatic Assay
This assay employed LC-MS/MS technology to monitor the SAH production from the NSD2 enzymatic reaction. The enzymatic reaction was performed in white proxiplate plus 384-well microplate (Perkin Elmer). The reaction mixture (10 μL) were composed of 8 nM NSD2 [1-1365], […] SAM (USB, 10601) and 400 nM nucleosome (purified from mouse liver) in reaction buffer (20 mM Tris-HCl, pH at 8.0, 0.01% Tween 20, 10 mM MgCl2, 50 mM NaCl, 1 mM DTT, 1 mM TCEP (pH7.5)). After 90 min incubation at room temperature, 3 μL quenching solution containing 2.5% TFA with 320 nM d4-SAH was added to stop the reaction.
For the inhibition assay, compound solutions were transferred into the wells by Mosquito™ (TTP LabTech). The inhibition assays were carried out by preincubating various concentrations of the inhibitor with 5 uL reaction mixture containing 16 nM NSD2 [1-1365] and 2 uM SAM (USB, 10601) in reaction buffer. After 20 min preincubation, 5 uL solution containing 800 nM nucleosome (purified from mouse liver) in reaction buffer was added to initiate the reaction. The reaction was stopped by 3 μL quenching solution containing 2.5% TFA with 320 nM d4-SAH after 90 min.
The SAH production from the enzymatic assays were monitored by LC-MS/MS on an API 4000 triple quadrupole mass spec with Turbolon Spray (Applied Biosystem) coupled with Prominenece UFLC(Shimazu). Liquid chromatography was performed on a Chromolith FastGradient HPLC column (RP-18e, 25-2 mm, from Merck) at a flow rate of 0.8 ml/min. The column was connected directly to the turbo ion electrospray operating in the positive-ion mode. Mobile phase A is 0.1% FA and 2% methanol in water and mobile phase B is 0.1% FA in ACN. Injection volume was 3 μl and the autosampler was kept at 4 degree. SAH and d4-SAH were simultaneously monitored. Data were acquired and processed by Analyst software.
To quantify the formed SAH, d4-SAH was added as internal standard (IS). A series of SAH (Sigma, A9384) solution at varying concentration (1-500 nM in reaction buffer) was mixed with quenching solution mentioned above. Then LC-MS/MS was carried out on API 4000 LC/MS/MS system to detect both SAH and d4-SAH. The plot of SAH peak area/IS peak area vs SAH concentration was used to generate the normalization factor of SAH. The SAH production from real enzymatic reaction was derived from the standard curve of SAH. The down-limit of our system for the detection of SAH is around 1-2 nM, and the linear range can reach up to 500 nM.

Assay [1] concerns cellular H3K36me2 level in multiple myeloma cell line KMS11 (t(4;14)+). In words: H3K36me2 cellular ELISA assay in KMS11-Par line. It is filed as cell-based. Particulars: Homo sapiens, KMS-11; KMS11-Par line (t(4;14)+), 72 hours treatment, ELISA; read-out: H3K36me2 ELISA in KMS11-Par. The method, then: H3K36Me2 Cellular ELISA Assay in KMS11-Par Line
An ELISA (enzyme-linked immunosorbent assay) based assay was used to test the ability of candidate compound to reduce cellular H3K36me2 level in multiple myeloma cell line KMS11 (t(4;14)+). KMS11 (Horizon Discovery Ltd.) cells are maintained in RPM11640 media with 12.5% FBS and 50 U/ml Penicillin-Streptomycin. For assay compound treatment, single cell suspension was prepared in Opti-MEM supplemented with B-27 and N2 supplement (Invitrogen 11058-021, 17504-044, 17502-048) for ELISA and in maintenance media for cellTiter Glo (CTG) viability assay. One day prior to cell treatment, 1,250 KMS11 cells were seeded into 384-well Greiner CellStar TC plate (Greiner #781086) at the final volume of 30 μL/well.
Cells were treated with tested compounds at the desired concentration for 72 hours. Crude histone lysate was extracted by 0.4M HCl following neutralization by 0.5M Sodium phosphate, dibasic (Na2HPO4), pH ˜12.5. Equal amount of histone lysate was loaded to Corning 384-well high biding plate (Corning #3577, black) for H3K36m2 and to Thermo 384-well high binding Nunc plate (Thermo #460372, white) for total H3.
Histone bound plates were washed and blocked with 5% BSA. […] The abundance of H3K36me2 and total H3 was measured by Chemiluminesce on a plate reader. Cell viability was monitored on a parallel seeded plate with CellTiter-Glo reagent (Promega #G7573).
Background: An ELISA detects its analyte on a solid surface through an enzyme-linked reagent.

[2] abbreviates: NSD2 biochemical activity, class symbols.

Like-named read-outs stand apart in the source and are kept apart here.

NSD2 [1-1365], sequence (O96028 whole entry): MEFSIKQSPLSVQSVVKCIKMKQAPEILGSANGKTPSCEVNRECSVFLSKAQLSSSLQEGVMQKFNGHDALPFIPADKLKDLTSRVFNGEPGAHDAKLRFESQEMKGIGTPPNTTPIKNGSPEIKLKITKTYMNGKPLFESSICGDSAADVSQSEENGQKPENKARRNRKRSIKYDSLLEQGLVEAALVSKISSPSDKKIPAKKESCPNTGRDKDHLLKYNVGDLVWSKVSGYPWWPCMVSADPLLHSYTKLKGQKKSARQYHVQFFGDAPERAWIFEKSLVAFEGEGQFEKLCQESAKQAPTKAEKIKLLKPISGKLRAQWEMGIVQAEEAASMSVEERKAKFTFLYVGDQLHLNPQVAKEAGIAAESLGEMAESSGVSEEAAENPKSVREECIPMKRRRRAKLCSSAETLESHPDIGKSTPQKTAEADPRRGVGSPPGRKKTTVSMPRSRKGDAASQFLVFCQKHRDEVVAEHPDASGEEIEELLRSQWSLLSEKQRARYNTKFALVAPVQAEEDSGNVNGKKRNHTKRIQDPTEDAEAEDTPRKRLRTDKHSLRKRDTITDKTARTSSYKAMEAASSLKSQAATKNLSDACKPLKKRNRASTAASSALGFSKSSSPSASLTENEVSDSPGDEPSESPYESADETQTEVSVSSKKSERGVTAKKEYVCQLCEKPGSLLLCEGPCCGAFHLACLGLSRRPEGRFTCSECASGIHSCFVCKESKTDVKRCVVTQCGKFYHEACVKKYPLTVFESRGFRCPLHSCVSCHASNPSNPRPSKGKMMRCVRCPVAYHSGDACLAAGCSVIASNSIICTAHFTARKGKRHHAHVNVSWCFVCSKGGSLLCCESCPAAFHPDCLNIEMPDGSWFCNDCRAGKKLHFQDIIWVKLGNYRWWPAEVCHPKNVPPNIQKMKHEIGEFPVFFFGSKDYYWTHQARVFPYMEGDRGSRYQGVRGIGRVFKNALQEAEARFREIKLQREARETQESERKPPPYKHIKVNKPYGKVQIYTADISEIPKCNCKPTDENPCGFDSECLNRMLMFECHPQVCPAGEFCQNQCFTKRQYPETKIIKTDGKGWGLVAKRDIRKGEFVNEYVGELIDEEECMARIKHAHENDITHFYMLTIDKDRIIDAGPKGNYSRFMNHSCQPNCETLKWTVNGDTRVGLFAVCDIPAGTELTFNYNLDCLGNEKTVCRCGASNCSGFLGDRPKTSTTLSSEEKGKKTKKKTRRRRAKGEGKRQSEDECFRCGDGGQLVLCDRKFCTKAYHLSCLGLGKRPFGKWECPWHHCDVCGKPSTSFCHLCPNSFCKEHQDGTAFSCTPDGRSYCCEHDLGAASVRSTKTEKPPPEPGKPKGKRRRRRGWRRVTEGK

With `Nc1nccc2c1ncn2Cc1cc(-c2ccc(F)c(F)c2)ncc1N1CCC[C@](N)(Cc2nccs2)C1` [Example 48, (S)-1-((5-(3-amino-3-(thiazol-2-ylmethyl)piperidin-1-yl)-2-(3,4-difluorophenyl)pyridin-4-yl)methyl)-1H-imidazo[4,5-c]pyridin-4-amine], the IC50 at NSD2 [1-1365] (setting [2]) was 1 to 10 nM; in assay [1] it was 464 nM.

Turning to `Cn1ccc(C[C@@]2(N)CCCN(c3cnc(-c4ccc(F)cc4)cc3Cn3cnc4c(N)nccc43)C2)n1` [Example 49, (S)-1-((5-(3-amino-3-((1-methyl-1H-pyrazol-3-yl)methyl)piperidin-1-yl)-2-(4-fluorophenyl)pyridin-4-yl)methyl)-1H-imidazo[4,5-c]pyridin-4-amine], the IC50 on NSD2 [1-1365] (setting [2]) was 1 to 10 nM; in assay [1], 12700 nM.

As to `COc1ccc(-c2cc(Cn3cnc4c(N)nccc43)c(N3CCC[C@](N)(Cc4ccccn4)C3)cn2)cc1F` [Example 50, (S)-1-((5-(3-amino-3-(pyridin-2-ylmethyl)piperidin-1-yl)-2-(3-fluoro-4-methoxyphenyl)pyridin-4-yl)methyl)-1H-imidazo[4,5-c]pyridin-4-amine], the IC50 at NSD2 [1-1365] (setting [2]) is 1 to 10 nM; in assay [1] it was 895 nM.

On to `Nc1nccc2c1ncn2Cc1cc(-c2ccc(F)c(F)c2)ncc1N1CCC[C@](N)(Cc2ccccn2)C1` [Example 51, (S)-1-((5-(3-amino-3-(pyridin-2-ylmethyl)piperidin-1-yl)-2-(3,4-difluorophenyl)pyridin-4-yl)methyl)-1H-imidazo[4,5-c]pyridin-4-amine], for which the values for the IC50 (at NSD2 [1-1365] (setting [2]); in assay [1]) were 1 to 10 nM and 1530 nM, respectively.

On to `C[C@@H]1CN(c2cnc(-c3ccc(F)cc3)cc2Cn2cnc3c(N)ncnc32)C[C@@](N)(CC(F)F)C1` [Example 307, 9-((5-((3S,5S)-3-amino-3-(2,2-difluoroethyl)-5-methylpiperidin-1-yl)-2-(4-fluorophenyl)pyridin-4-yl)methyl)-9H-purin-6-amine], for which the IC50 on NSD2 [1-1365] is greater than 1000 nM.

With `Nc1ncnc2c1ncn2Cc1cc(-c2ccc(F)c(F)c2)ncc1N1C[C@H](N)C[C@H](F)C1` [Example 309, 9-((5-((3R,5S)-3-amino-5-fluoropiperidin-1-yl)-2-(3,4-difluorophenyl)pyridin-4-yl)methyl)-9H-purin-6-amine], the IC50 on NSD2 [1-1365] fell in the range of 10 to 1000 nM.

As for `C[C@H]1CC[C@@H](N)CN1c1cnc(-c2ccc(F)c(F)c2)cc1Cn1cnc2c(N)ncnc21` [Example 310, 9-((5-((2S,5R)-5-amino-2-methylpiperidin-1-yl)-2-(3,4-difluorophenyl)pyridin-4-yl)methyl)-9H-purin-6-amine], the IC50 on NSD2 [1-1365] is greater than 1000 nM.

Turning to `Nc1ncnc2c1ncn2Cc1cc(-c2ccc(F)c(F)c2)ncc1N1CCC[C@@H](N)[C@H]1COC(F)F` [Example 311, 9-((5-((2S,3R)-3-amino-2-((difluoromethoxy)methyl)piperidin-1-yl)-2-(3,4-difluorophenyl)pyridin-4-yl)methyl)-9H-purin-6-amine], the IC50 at NSD2 [1-1365] fell in the range of 10 to 1000 nM.

Consider `Nc1ncnc2c1ncn2Cc1cc(-c2ccc(F)c(F)c2)ncc1N1CCC[C@@H](N)[C@H]1CO` [Example 312, ((2S,3R)-3-amino-1-(4-((6-amino-9H-purin-9-yl)methyl)-6-(3,4-difluorophenyl)pyridin-3-yl)piperidin-2-yl)methanol], for which, at NSD2 [1-1365], the IC50 fell in the range of 10 to 1000 nM.

As to `Nc1ncnc2c1ncn2Cc1cc(-c2ccc(F)c(F)c2)ncc1N1CCC[C@@H](N)[C@H]1COCC(F)F` [Example 313, 9-((5-((2S,3R)-3-amino-2-((2,2-difluoroethoxy)methyl)piperidin-1-yl)-2-(3,4-difluorophenyl)pyridin-4-yl)methyl)-9H-purin-6-amine], on NSD2 [1-1365], the IC50 was in the range of 10 to 1000 nM.

`Nc1ncnc2c1ncn2Cc1cc(-c2ccc(F)c(F)c2)ncc1N1CCC[C@@H](N)[C@H]1CCO` [Example 314, 2-((2R,3R)-3-amino-1-(4-((6-amino-9H-purin-9-yl)methyl)-6-(3,4-difluorophenyl)pyridin-3-yl)piperidin-2-yl)ethan-1-ol]: the IC50 at NSD2 [1-1365] was in the range of 10 to 1000 nM.

Turning to `CNC(=O)[C@@H]1[C@H](N)CCCN1c1cnc(-c2ccc(F)c(F)c2)cc1Cn1cnc2c(N)ncnc21` [Example 315, (2S,3R)-3-amino-1-(4-((6-amino-9H-purin-9-yl)methyl)-6-(3,4-difluorophenyl)pyridin-3-yl)-N-methylpiperidine-2-carboxamide], on NSD2 [1-1365], the IC50 is greater than 1000 nM.

On to `Nc1ncnc2c1ncn2Cc1cc(-c2ccc(F)c(F)c2)ncc1N1CCC[C@@H](N)[C@H]1[C@@H](O)C(F)(F)F` [Example 316, (R)-1-((2S,3R)-3-amino-1-(4-((6-amino-9H-purin-9-yl)methyl)-6-(3,4-difluorophenyl)pyridin-3-yl)piperidin-2-yl)-2,2,2-trifluoroethan-1-ol], for which the IC50 at NSD2 [1-1365] was greater than 1000 nM.

In the case of `CN(C)C(=O)[C@@H]1[C@H](N)CCCN1c1cnc(-c2ccc(F)c(F)c2)cc1Cn1cnc2c(N)ncnc21` [Example 317, (2S,3R)-3-amino-1-(4-((6-amino-9H-purin-9-yl)methyl)-6-(3,4-difluorophenyl)pyridin-3-yl)-N,N-dimethylpiperidine-2-carboxamide], at NSD2 [1-1365], the IC50 was greater than 1000 nM.

Turning to `NC(=O)[C@@H]1[C@H](N)CCCN1c1cnc(-c2ccc(F)c(F)c2)cc1Cn1cnc2c(N)ncnc21` [Example 318, (2S,3R)-3-amino-1-(4-((6-amino-9H-purin-9-yl)methyl)-6-(3,4-difluorophenyl)pyridin-3-yl)piperidine-2-carboxamide], on NSD2 [1-1365], the IC50 was greater than 1000 nM.

As to `Nc1ncnc2c1ncn2Cc1cc(-c2ccc(F)c(F)c2)ncc1N1CCC[C@@H](N)[C@H]1C(=O)O` [Example 319], the IC50 on NSD2 [1-1365] is greater than 1000 nM.

On to `NC(=O)C[C@@H]1[C@H](N)CCCN1c1cnc(-c2ccc(F)c(F)c2)cc1Cn1cnc2c(N)ncnc21` [Example 320, 2-((2R,3R)-3-amino-1-(4-((6-amino-9H-purin-9-yl)methyl)-6-(3,4-difluorophenyl)pyridin-3-yl)piperidin-2-yl)acetamide], for which the IC50 at NSD2 [1-1365] is greater than 1000 nM.

Turning to `Nc1ncnc2c1ncn2Cc1cc(-c2ccc(F)c(F)c2)ncc1N1CCCC2(COCCN2)C1` (stereo not shown) [Example 321, 9-((2-(3,4-difluorophenyl)-5-(4-oxa-1,8-diazaspiro[5.5]undecan-8-yl)pyridin-4-yl)methyl)-9H-purin-6-amine], at NSD2 [1-1365], the IC50 is greater than 1000 nM.

Turning to `Nc1ncnc2c1ncn2Cc1cc(-c2ccc(F)c(F)c2)ncc1N1CCC[C@@H](N)[C@H]1c1ccccc1` [Example 323, 9-((5-((2R,3R)-3-amino-2-phenylpiperidin-1-yl)-2-(3,4-difluorophenyl)pyridin-4-yl)methyl)-9H-purin-6-amine], at NSD2 [1-1365], the IC50 was greater than 1000 nM.

Turning to `Nc1ncnc2c1ncn2Cc1cc(-c2ccc(F)c(F)c2)ncc1N1CCCC(N)C1=O` (stereo not shown) [Example 324, 3-amino-1-(4-((6-amino-9H-purin-9-yl)methyl)-6-(3,4-difluorophenyl)pyridin-3-yl)piperidin-2-one], the IC50 at NSD2 [1-1365] is greater than 1000 nM.

Take `Nc1ncnc2c1ncn2Cc1cc(-c2ccc(F)c(F)c2)ncc1N1C[C@H](N)CCC1=O` [Example 325, (R)-5-amino-1-(4-((6-amino-9H-purin-9-yl)methyl)-6-(3,4-difluorophenyl)pyridin-3-yl)piperidin-2-one]: at NSD2 [1-1365], the IC50 was greater than 1000 nM.

The values are drawn from patent US11420970B1 (NOVARTIS AG, priority 2019, dated 2022).
